Molecular target: T1, BenM^H110R, F211V, Y286N (Acinetobacter baylyi, UniProt O68014, F211V/H110R/Y286N)
T1 construct: expressed in transfected cells; host or cells: Saccharomyces cerevisiae; centromeric plasmid (gap repair) or chromosomal integration, REV1p
Experiment: CCM-induced GFP expression in yeast expressing engineered BenM variants (epPCR library, FACS, flow cytometry)
Assay type: cell-based, Saccharomyces cerevisiae
From the text: For optimization of the CCM inducibility of BenM, purified products from three consecutive rounds of error-prone PCR (epPCR) of the effector-binding domain (EBD, residues 90-304) of BenM, were co-transformed into yeast together with linearized centromeric plasmid according to Eckert-Boulet et al. (Eckert-Boulet, N., Pedersen, M. L., Krogh, B. O. & Lisby, M. Optimization of ordered plasmid assembly by gap repair in Saccharomyces cerevisiae. Yeast 29, 323-34 (2012)), to allow for in vivo gap repair and library reconstitution of wild-type BenM DNA binding domain (DBD) fused to EBD variants expressed from REV1p. For epPCR we used the GeneMorph II kit according to manufacturer's description (Agilent Technologies). Transformed yeast contained a chromosomal integration of the 209 bp_CYC1p_BenO_T1 promoter controlling the expressing of GFP at EasyClone site 4 on chromosome XII (Mikkelsen, M. D. et al. Microbial production of indolylglucosinolate through engineering of a multi-gene pathway in a versatile yeast expression platform. Metab. Eng. 14, 104-11 (2012)), to allow for FACS-based screening of improved CCM-inducible BenM variants.
A two-step method was used to sort for BenM variants that specifically induce in the presence of CCM. Cells (10× library size, approx. 400,000 cells) were inoculated in mineral medium without inducer and incubated for 24 h at 30° C., diluted into PBS, and then GFP intensity of individual cells was measured using a BD Biosciences Aria (Becton Dickinson) with a blue laser (488 nm) by applying tight gates on the FSC and SSC channels. Only cells displaying auto-fluorescence intensities were sorted in order to limit auto-activating BenM variants. Sorted cells were recovered in mineral medium, followed by subculturing (1:100) into mineral medium containing 1.4 mM (200 mg/L) cis,cis-muconic acid. The cells were grown for 24 h at 30° C., washed and subjected to a second round of FACS. […] Individual clones were subsequently validated using flow cytometry.
Events were analyzed using FlowJo software (TreeStar Inc.).

T1 sequence (O68014 whole entry H110R/F211V/Y286N): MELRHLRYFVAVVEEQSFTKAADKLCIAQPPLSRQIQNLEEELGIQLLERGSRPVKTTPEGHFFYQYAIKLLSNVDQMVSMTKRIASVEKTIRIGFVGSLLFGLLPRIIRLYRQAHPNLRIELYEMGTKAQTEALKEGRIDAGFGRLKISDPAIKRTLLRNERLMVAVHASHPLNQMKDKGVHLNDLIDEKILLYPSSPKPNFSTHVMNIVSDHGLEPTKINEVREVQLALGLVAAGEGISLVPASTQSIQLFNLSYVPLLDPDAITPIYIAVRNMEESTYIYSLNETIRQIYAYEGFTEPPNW

## O=C(O)/C=C\C=C/C(=O)O [CCM, cis, cis-muconic acid]
BenM^H110R, diacids 1.4 mM, pH 4.5, 24 h
  specificity of GFP induction among diacids tested: induce GFP expression specifically in response to CCM
Chromosomally integrated BenM^H110R, 1.4 mM (200 mg/L) CCM, 24 h
  maximum induction of GFP output: 10 fold
plasmid-based expression of BenM^H110R
  GFP output upon CCM induction: 6 fold

Source: patent publication US20190185865A1, “USE OF PROKARYOTIC TRANSCRIPTIONAL ACTIVATORS AS METABOLITE BIOSENSORS IN EUKARYOTIC CELLS” (Danmarks Tekniske Universitet, priority 2016, published 2019)
